# Laboratory results taken from patent US10526323B2, “Indazole and azaindazole substituted compounds as mGluR4 allosteric potentiators, compositions, and methods of treating neurological dysfunction” (Vanderbilt University, priority 2015, dated 2020).
# Biological target: mGluR4 (UniProt Q14833)
# Test: mGluR4 potentiation assay: increase in response to an EC20 concentration of agonist (species not given)
# Format: cell-based
# Conditions: EC50 for potentiation of mGluR4; table does not state human or rat
# Method: The disclosed compounds and compositions can be evaluated for their ability to act as a potentiator of metabotropic glutamate receptor activity, in particular mGluR4 activity, by any suitable known methodology known in the art. For example, Chinese Hamster Ovary (CHO) cells transfected with human mGluR4 or […] co-transfected with rat mGluR4 and the G-protein regulated Inwardly Rectifying Potassium channel (GIRK) were plated in clear bottom assay plates for assay in a Hamamatsu FDSS Fluorometric Plate Reader. The cells were loaded with either a Ca2+-sensitive fluorescent dye or the thallium responsive dye and the plates were washed and placed into a suitable kinetic plate reader. For human mGluR4 assays, a fluorescence baseline was established for 3-5 seconds, the disclosed compounds were then added to the cells, and the response in cells was measured. Approximately two and a half minutes later, a concentration of mGluR4 orthosteric agonist (e.g. glutamate or L-AP4) eliciting approximately 20% (EC20) of the maximal agonist response was added to the cells, and the response was measured. Two minutes later, a concentration of mGluR4 agonist (e.g. glutamate or L-AP4) eliciting 80% (EC80) of the maximal agonist response was added to the cells, and the response was measured. For rat mGluR4/GIRK experiments, a baseline was established for approximately five seconds, disclosed compounds were added, and either an EC20 or EC80 concentration of agonist was added approximately two and one half minutes later. Potentiation of the agonist response of mGluR4 by the disclosed compounds was observed as an increase in response to the EC20 concentration of agonist in the presence of compound compared to the response to agonist in the absence of compound. Similarly, antagonism of the agonist response of mGluR4 by the disclosed compounds was observed as a decrease in response to the EC80 concentration of agonist in the presence of compound compared to the response to agonist in the absence of compound.
# The above described assay operated in two modes. In the first mode, a range of concentrations of the disclosed compounds are added to cells, followed by a single fixed concentration of agonist. If the compound acts as a potentiator, an EC50 value for potentiation and a maximum extent of potentiation by the compound at this concentration of agonist is determined by non-linear curve fitting. If the compound acts as a noncompetitive antagonist, an IC50 value is determined by non-linear curve fitting. In the second mode, several fixed concentrations of the disclosed compounds are added to various wells on a plate, followed by a range in concentrations of agonist for each concentration of disclosed compound. The EC50 values for the agonist at each concentration of compound are determined by non-linear curve fitting. A decrease in the EC50 value of the agonist with increasing concentrations of the sample compound (a leftward shift of the agonist concentration-response curve) is an indication of the degree of mGluR4 potentiation at a given concentration of the sample compound. A decrease in the maximal response of the agonist with increasing concentrations of the sample compounds, with or without a rightward shift in agonist potency, is an indication of the degree of noncompetitive antagonism at mGluR4. The second mode also indicates whether the sample compounds also affect the maximum response to mGluR4 to agonists.
# These compounds are positive allosteric modulators (potentiators) of human and rat mGluR4 and were selective for mGluR4 compared to the other seven subtypes of metabotropic glutamate receptors.
row,Structure (SMILES),EC50 [nM]
1,"Cn1nc(C(C)(C)O)c2ccc(Nc3n[nH]c4cccnc34)cc21 [Example 54, 2-(6-((1H-pyrazolo[4,3-b]pyridin-3-yl)amino)-1-methyl-1H-indazol-3-yl)propan-2-ol]",865
2,"Cn1ncc2cc(Nc3n[nH]c4cccnc34)ccc21 [Example 55, N-(1-methyl-1H-indazol-5-yl)-1H-pyrazolo[4,3-b]pyridin-3-amine]",790
3,"Cn1cc2cc(Nc3n[nH]c4cccnc34)ccc2n1 [Example 56, N-(2-methyl-2H-indazol-5-yl)-1H-pyrazolo[4,3-b]pyridin-3-amine]",315
4,"Cn1ncc2cc(Nc3n[nH]c4c3CCCC4)ccc21 [Example 57, 1-methyl-N-(4,5,6,7-tetrahydro-1H-indazol-3-yl)-1H-indazol-5-amine]",> 10000
5,"CC(C)n1ncc2cc(Nc3n[nH]c4cccnc34)cc(Cl)c21 [Example 58, N-(7-chloro-1-isopropyl-1H-indazol-5-yl)-1H-pyrazolo[4,3-b]pyridin-3-amine]",2290
6,"Cc1c2cc(Nc3n[nH]c4cccnc34)ccc2nn1C(C)C [Example 59, N-(2-isopropyl-3-methyl-2H-indazol-5-yl)-1H-pyrazolo[4,3-b]pyridin-3-amine]",> 10000
7,"CC(C)n1ncc2cc(Nc3n[nH]c4nccnc34)cc(Cl)c21 [Example 60, N-(7-chloro-1-isopropyl-1H-indazol-5-yl)-1H-pyrazolo[3,4-b]pyrazin-3-amine]",790
8,"Cc1nn(C(C)C)c2ccc(Nc3n[nH]c4cccnc34)cc12 [Example 61, N-(1-isopropyl-3-methyl-1H-indazol-5-yl)-1H-pyrazolo[4,3-b]pyridin-3-amine]",133
9,"CC(C)n1cc2cc(Nc3n[nH]c4cccnc34)cc(Cl)c2n1 [Example 62, N-(7-chloro-2-isopropyl-2H-indazol-5-yl)-1H-pyrazolo[4,3-b]pyridin-3-amine]",914
10,"Cn1ncc2cc(Nc3n[nH]c4cccnc34)cc(Cl)c21 [Example 63, N-(7-chloro-1-methyl-1H-indazol-5-yl)-1H-pyrazolo[4,3-b]pyridin-3-amine]",85
11,"Clc1cc(Nc2n[nH]c3nccnc23)cc2cnn(CC3CCC3)c12 [Example 64, N-(7-chloro-1-(cyclobutylmethyl)-1H-indazol-5-yl)-1H-pyrazolo[3,4-b]pyrazin-3-amine]",67
12,"Clc1cc(Nc2n[nH]c3cccnc23)cc2cnn(CC3CCC3)c12 [Example 65, N-(7-chloro-1-(cyclobutylmethyl)-1H-indazol-5-yl)-1H-pyrazolo[4,3-b]pyridin-3-amine]",76
13,"Clc1cc(Nc2n[nH]c3cccnc23)cc2cn(CC3CCC3)nc12 [Example 66, N-(7-chloro-2-(cyclobutylmethyl)-2H-indazol-5-yl)-1H-pyrazolo[4,3-b]pyridin-3-amine]",117
14,"Cn1ncc2cc(Nc3n[nH]c4c3CCCC4)cc(Cl)c21 [Example 67, 7-chloro-1-methyl-N-(4,5,6,7-tetrahydro-1H-indazol-3-yl)-1H-indazol-5-amine]",> 10000
15,"Cc1c2cc(Nc3n[nH]c4cccnc34)ccc2nn1C1CCCC1 [Example 68, N-(2-cyclopentyl-3-methyl-2H-indazol-5-yl)-1H-pyrazolo[4,3-b]pyridin-3-amine]",> 10000
16,"Cc1cc(Cn2nc(C)c3cc(Nc4n[nH]c5nccnc45)ccc32)no1 [Example 69, N-(3-methyl-1-((5-methylisoxazol-3-yl)methyl)-1H-indazol-5-yl)-1H-pyrazolo[3,4-b]pyrazin-3-amine]",145
17,"Cc1cc(Cn2nc3ccc(Nc4n[nH]c5cccnc45)cc3c2C)no1 [Example 70, N-(3-methyl-2-((5-methylisoxazol-3-yl)methyl)-2H-indazol-5-yl)-1H-pyrazolo[4,3-b]pyridin-3-amine]",870
18,"Cc1nn(CC2CCC2)c2ccc(Nc3n[nH]c4ccccc34)cc12 [Example 71, N-(1-(cyclobutylmethyl)-3-methyl-1H-indazol-5-yl)-1H-indazol-3-amine]",342
19,"Cc1nn(CC2CCC2)c2ccc(Nc3n[nH]c4cccnc34)cc12 [Example 72, N-(1-(cyclobutylmethyl)-3-methyl-1H-indazol-5-yl)-1H-pyrazolo[4,3-b]pyridin-3-amine]",47

row,Structure (SMILES),EC50 [nM]
1,"Cc1nn(CC2CCC2)c2ccc(Nc3n[nH]c4nccnc34)cc12 [Example 73, N-(1-(cyclobutylmethyl)-3-methyl-1H-indazol-5-yl)-1H-pyrazolo[3,4-b]pyrazin-3-amine]",186
2,"Cc1nn(C2CCCC2)c2ccc(Nc3n[nH]c4cccnc34)cc12 [Example 74, N-(1-cyclopentyl-3-methyl-1H-indazol-5-yl)-1H-pyrazolo[4,3-b]pyridin-3-amine]",265
3,"Cc1nn(CC2CCC2)c2ccc(Nc3n[nH]c4ncccc34)cc12 [Example 75, N-(1-(cyclobutylmethyl)-3-methyl-1H-indazol-5-yl)-1H-pyrazolo[3,4-b]pyridin-3-amine]",187
4,"Cc1cc(Cn2nc(C)c3cc(Nc4n[nH]c5cccnc45)ccc32)no1 [Example 76, N-(3-methyl-1-((5-methylisoxazol-3-yl)methyl)-1H-indazol-5-yl)-1H-pyrazolo[4,3-b]pyridin-3-amine]",51
5,"Cc1cc(Cn2nc(C)c3cc(Nc4n[nH]c5ncccc45)ccc32)no1 [Example 77, N-(3-methyl-1-((5-methylisoxazol-3-yl)methyl)-1H-indazol-5-yl)-1H-pyrazolo[3,4-b]pyridin-3-amine]",157
6,"Cc1cc(Cn2nc(C)c3cc(Nc4n[nH]c5ccccc45)ccc32)no1 [Example 78, N-(3-methyl-1-((5-methylisoxazol-3-yl)methyl)-1H-indazol-5-yl)-1H-indazol-3-amine]",129
7,Cc1n[nH]c2ccc(Nc3n[nH]c4cccnc34)cc12 [Example 79],813
8,"c1cnc2c(Nc3ccc4c(cnn4CC4CCC4)c3)n[nH]c2c1 [Example 80, N-(1-(cyclobutylmethyl)-1H-indazol-5-yl)-1H-pyrazolo[4,3-b]pyridin-3-amine]",167
9,"c1cc2c(cnn2CC2CCC2)cc1Nc1n[nH]c2c1CCCC2 [Example 81, 1-(cyclobutylmethyl)-N-(4,5,6,7-tetrahydro-1H-indazol-3-yl)-1H-indazol-5-amine]",> 10000
10,"Cc1cc(Cn2ncc3cc(Nc4n[nH]c5cccnc45)cc(Cl)c32)no1 [Example 82, N-(7-chloro-1-((5-methylisoxazol-3-yl)methyl)-1H-indazol-5-yl)-1H-pyrazolo[4,3-b]pyridin-3-amine]",136
11,Cn1cc2cc(Nc3n[nH]c4nccnc34)ccc2n1 [Example 83],202
12,Cn1ncc2cc(Nc3n[nH]c4nccnc34)ccc21 [Example 84],818
13,"c1cnc2c(Nc3ccc4c(cnn4CC4CCC4)c3)n[nH]c2n1 [Example 85, N-(1-(cyclobutylmethyl)-1H-indazol-5-yl)-1H-pyrazolo[3,4-b]pyrazin-3-amine]",57
14,"c1ccc2c(Nc3ccc4c(cnn4CC4CCC4)c3)n[nH]c2c1 [Example 86, N-(1-(cyclobutylmethyl)-1H-indazol-5-yl)-1H-indazol-3-amine]",51.4
15,"c1cnc2c(Nc3ccc4nn(CC5CCC5)cc4c3)n[nH]c2n1 [Example 87, N-(2-(cyclobutylmethyl)-2H-indazol-5-yl)-1H-pyrazolo[3,4-b]pyrazin-3-amine]",749
16,"c1cnc2c(Nc3ccc4[nH]ncc4c3)n[nH]c2c1 [Example 88, N-(1H-indazol-5-yl)-1H-pyrazolo[4,3-b]pyridin-3-amine]",72
17,"c1cnc2c(Nc3ccc4nn(CC5CCC5)cc4c3)n[nH]c2c1 [Example 89, N-(2-(cyclobutylmethyl)-2H-indazol-5-yl)-1H-pyrazolo[4,3-b]pyridin-3-amine]",> 10000
18,"Cc1nn(C2CCNCC2)c2ccc(Nc3n[nH]c4cccnc34)cc12 [Example 90, N-(3-methyl-1-(piperidin-4-yl)-1H-indazol-5-yl)-1H-pyrazolo[4,3-b]pyridin-3-amine]",> 10000
19,CCCCCn1nc(C)c2cc(Nc3n[nH]c4cccnc34)ccc21 [Example 91],19
